Data taken from US20230348467A1, “Heteroaryl Derivative, Preparation Method Therefor, And Use Thereof” (Zhejiang Hisun Pharmaceutical Co., Ltd., priority 2020, published 2023).

Legend:
[1] = tested on: NCI-H358 cells (containing KRAS G12C mutation); experiment: Inhibition of NCI-H358 cell proliferation (CellTiter-Glo); assay type: cell-based; conditions: Homo sapiens, NCI-H358, 120 h, read-out: IC50(nM)/NCI-H358
Experimental: (§1) The following method was used to determine the effects of the compounds of the present invention on NCI-H358 cell proliferation. NCI-H358 cells (containing KRAS G12C mutation) were purchased from Cell Resource Center of Shanghai Institutes for Biological Sciences, Chinese Academy of Sciences, and cultured in RPMI 1640 mediums containing 10% fetal bovine serum, 100 U penicillin, 100 μg/mL streptomycin and 1 mM Sodium Pyruvate. The activities of the cells were determined by CellTiter-Glo® Luminescent Cell Viability Assay kit (Promega, article number: G7573).
(§2) The experimental method was operated according to the steps in the kit instruction, and was briefly described as follows: test compounds were first dissolved in DMSO to prepare storage solutions of 10 mM, and then diluted in mediums, prepared as test samples. The final concentrations of the test compounds were 10,000 nM to 1.52 nM. The cells in logarithmic phase were inoculated in a 96-well cell culture plate with 1,000 cells per well, after cultured overnight in 5% CO2 incubator at 37° C., the test compounds were added to the incubator to continue the culture for 120 hours. After the culture, 50 μL of CellTiter-Glo detection solution was added to each well, shaken for 5 minutes, and then stood for 10 minutes. Then, a Luminescence mode was used to read the luminescence values of each well of the samples on a microplate reader. Compared with the numerical value of the control group (0.3% DMSO), the percentage inhibition rates of the compounds at each concentration were calculated, and the IC50 values of the compounds inhibiting cell proliferation were obtained by performing nonlinear regression analysis with logarithmic values of the compound concentration—inhibition rate by GraphPad Prism 5 software, which was shown in Table 3.

[2] = biological target: recombinant human full-length SHP2 (Homo sapiens (Human), UniProt Q06124); experiment: Allosteric inhibition of full-length SHP2 enzyme (DiFMUP fluorescence); assay type: biochemical; conditions: full-length SHP2 0.5 nM, activating peptide 0.5 uM, DiFMUP substrate
Sequence of recombinant human full-length SHP2 (Q06124 whole entry): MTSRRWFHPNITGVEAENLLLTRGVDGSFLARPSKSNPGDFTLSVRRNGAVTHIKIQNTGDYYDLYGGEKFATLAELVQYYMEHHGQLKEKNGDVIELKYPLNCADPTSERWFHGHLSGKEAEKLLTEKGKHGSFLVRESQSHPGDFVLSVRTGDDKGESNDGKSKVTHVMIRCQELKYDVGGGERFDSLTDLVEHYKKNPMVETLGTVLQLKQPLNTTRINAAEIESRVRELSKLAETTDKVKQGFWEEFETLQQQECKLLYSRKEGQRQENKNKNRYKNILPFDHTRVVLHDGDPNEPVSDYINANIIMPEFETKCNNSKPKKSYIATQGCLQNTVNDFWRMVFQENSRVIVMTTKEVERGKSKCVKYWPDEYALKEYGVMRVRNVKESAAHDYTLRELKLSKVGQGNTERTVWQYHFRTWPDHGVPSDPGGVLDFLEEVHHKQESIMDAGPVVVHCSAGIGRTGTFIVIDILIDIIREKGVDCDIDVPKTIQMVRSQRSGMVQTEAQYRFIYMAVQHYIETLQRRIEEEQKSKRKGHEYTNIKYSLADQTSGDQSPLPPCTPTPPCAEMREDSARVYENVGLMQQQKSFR
Source text: The following method was used to determine the inhibition degrees of the compounds of the present invention on the activity of recombinant human full-length SHP2 in vitro. SHP2 was allosterically activated by the binding of di-tyrosyl-phosphorylated peptide to a Src homologous 2(SH2) domain of SHP2. An activation step of the latter leads to the self-inhibitory interface release of SHP2, and then activates SHP2 protein tyrosine phosphatase (PTP), which might be used for substrate recognition and reaction catalysis.
The experimental process was briefly described as follows: Test compounds were first dissolved in DMSO to prepare storage solutions. […] Then, the compounds to be tested were added in a concentration range of 0.00004-10 uM and incubated at 25° C. for 60 minutes. Then DiFMUP (Thermo, D6567) was added in the reaction and incubated at 25° C. for 30 minutes. After incubation, readings were taken using a microplate reader (BMG) with excitation and emission wavelengths of 340 nm and 450 nm, respectively.

[3] = Pharmacokinetic test in ICR mice, intragastric (Test Example 4); assay type: in vivo; conditions: PO
Source text: ICR mice were used as test animals, and LC/MS/MS methods was used to determine the drug concentrations at different moments in plasma of mice administered by intragastric injection with the compound 5 and the compound 6 of the present invention, and to study the pharmacokinetic characteristics of the compounds of the present invention in mice. An appropriate amount of drug was weighed, added with an appropriate amount of sodium carboxymethylcellulose (CMC-Na, containing 0.5% Tween 80), vortexed, and ultrasonically prepared into 1 mg/kg suspension. The ICR mice in the intragastric group of each compound to be tested (9 mice in each group) were fasted overnight and then administered by intragastric injection (PO, […], and administration volume of 10 mL/kg), and ate 4 hours after administration. About 0.2 mL of blood was collected via jugular vein before administration and 0.083 hour, 0.25 hour, 0.5 hour, 1 hour, 2 hours, 4 hours, 8 hours and 24 hours after administration, and heparin sodium was used for anticoagulation. The collected blood samples were placed on ice, and plasma was separated by centrifugation (centrifugation condition: 1,500 g, 10 minutes). The collected plasma samples were stored at −40° C. to −20° C. before analysis. LC-MS/MS was used to determine the contents of the compounds to be tested in mouse plasma after intragastric administration.

[4] = tested on: NCI-H23 cells (containing KRAS G12C mutation); experiment: Inhibition of NCI-H23 cell proliferation (CellTiter-Glo); assay type: cell-based; conditions: Homo sapiens, 120 hours culture
Experimental: as §1, with “NCI-H23” for “NCI-H358”
as §2, with “value of a control group” for “value of the control group”, “in Table 2.” for “in Table 3.”

[5] = Pharmacokinetic test of mice, intragastric (Test Example 5); assay type: in vivo; conditions: ICR mice, PO, 5 mg/kg
Source text: ICR mice were used as test animals, and LC/MS/MS methods was used to determine the drug concentrations at different moments in plasma of mice administered by intragastric injectiion with the compound 27 of the present invention, and to study the pharmacokinetic characteristics of the compound of the present invention in mice. An appropriate amount of drug compound 27 was weighed, added with an appropriate amount of sodium carboxymethylcellulose (CMC-Na, containing 0.5% Tween 80), vortexed, and ultrasonically prepared into 0.5 mg/kg suspension. The ICR mice in the intragastric group of each compound to be tested (9 mice in each group) were fasted overnight and then administered by intragastric injection (PO, administration dose of the compound 27 was 5 mg/kg, and administration volume of the compound 27 was 10 mL/kg), and ate 4 hours after administration. About 0.2 mL of blood was collected via jugular vein before administration and 0.083 hour, 0.25 hour, 0.5 hour, 1 hour, 2 hours, 4 hours, 8 hours, 12 hours and 24 hours after administration, and heparin sodium was used for anticoagulation. The collected blood samples were placed on ice, and plasma was separated by centrifugation (centrifugation condition: 1,500 g, 10 minutes). The collected plasma samples were stored at −40° C. to −20° C. before analysis. LC-MS/MS was used to determine the content of the compound to be tested in mouse plasma after intragastric administration.

[6] = tested on: NCI-H358 subcutaneous transplanted tumors; experiment: Growth inhibition of subcutaneous transplanted NCI-H358 tumors in BALB/c nude mice; assay type: in vivo
Experimental: To evaluate antitumor effects and safety of the compounds of Example 27 in an animal model of BALB/c nude mice with subcutaneous transplanted NCI-H358 cell lines
An approximate amount of the compound of Example 27 was weighed, added with an approximate amount of DMA (dimethylacetamide) to fully dissolve the compound, then added with Solutol HS 15 and Saline (DMA: Solutol HS 15: Saline=5:10:85 (v/v/v)) in turn, and mixed evenly by vortex, and the configuration concentration was 3 mg/mL.
BALB/c nude mice, female, 6-7 weeks old (the age of mice when tumor cells were inoculated), 12 mice, purchased from Jiangsu GemPharmatech.
NCI-H358 cells were cultured in RPMI 1640 mediums containing 10% fetal bovine serum, 1% sodium pyruvate and 1% glutamine. NCI-H358 cells in exponential growth period were collected, and resuspend in PBS to a suitable concentration for subcutaneous tumor inoculation in nude mice.
12 female BALB/c nude mice were subcutaneously inoculated with about 3×10^6 NCI-H358 cells on the right sides of their backs. When the average volume of tumors reaches about 100 mm^3 to 200 mm^3, the mice were randomly divided according to tumor sizes with 6 mice in each group. The animals in each group were given the subjects once a day (qd) according to the animal body weights at a fixed time every day according to the table below, administered orally (po) for 10 consecutive days, and the daily body weights were recorded.
After tumor inoculation, routine monitoring included the effects of tumor growth and treatment on the normal behaviors of the animals, specifically the mobility, feeding and drinking, weight gain or loss, eyes, coat and other abnormalities of the experimental animals.
(1) TV (tumor volume)=½×a×b^2, wherein a and b represent the length and the width of the tumor respectively;
(2) RTV (relative tumor volume)=Vt/V0, wherein V0 is the tumor volume measured at the time of grouping administration (i.e., d0), and Vt is the tumor volume at each measurement;
(3) Relative tumor proliferation rate T/C (%)=TRTV/CRTV×100%, wherein TRTV is the RTV of the treatment group and CRTV is the RTV of the control group;

[7] = Day 10, 30 mg/kg po qd for 10 days

Row | Compound | IC50 [1] | IC50 [2] | Pharmacokinetic properties (conclusion in words) [3] | AUC(0-inf) ([3]; mouse, 10 mg/kg per table (method text says 1 mg/kg), plasma, read-out: Area under curve AUC0-∞) | Cmax ([3]; mouse, 10 mg/kg per table (method text says 1 mg/kg), plasma, read-out: Blood concentration Cmax) | IC50 [4] | Pharmacokinetic properties (conclusion in words) [5] | AUC(0-inf) ([5]; mouse, plasma, read-out: Area under curve AUC0-∞) | Cmax ([5]; mouse, plasma, read-out: Blood concentration Cmax) | Tmax ([5]; mouse, plasma, read-out: Peak time Tmax) | Growth inhibition effect on NCI-H358 tumor-bearing mice (in words) ([6]; 30 mg/kg) | Body weight change ([6]; 30 mg/kg po qd for 10 days) | Tumor volume (mm^3, mean value ± standard error) Day 0 ([6]; Day 0 (at grouping), 30 mg/kg po qd group) | TGI % Day 10 [6, 7] | Tumor volume (mm^3, mean value ± standard error) Day 10 [6, 7]
1 | NC(=O)c1nc(N2CCC(N)(c3ccccc3)CC2)nc2[nH]nc(-c3cccc(Cl)c3Cl)c12 [Example 6, 6-(4-amino-4-phenylpiperidin-1-yl)-3-(2,3-dichlorophenyl)-1H-pyrazolo[3,4-d]pyrimidine-4-carboxamide] | 19 nM | 4 nM | good pharmacokinetic properties | 18500 ng·h/mL | 1190 ng/mL | 61 nM |  |  |  |  |  |  |  |  | 
2 | NC(=O)c1nc(N2CCC(N)(c3ccccc3)CC2)nc2[nH]nc(-c3ccnc(Cl)c3Cl)c12 [Example 27, 6-(4-amino-4-phenylpiperidin-1-yl)-3-(2,3-dichloropyridin-4-yl)-1H-pyrazolo[3,4-d]pyrimidine-4-carboxamide] | 37 nM | 7 nM |  |  |  | 167 nM | good pharmacokinetic properties | 2720 ng·h/mL | 285 ng/mL | 8 h | obvious growth inhibition effects | no obvious change in body weight | 138 ± 14 mm^3 | 55.6% | 155 ± 22 mm^3
